US20240207444A1, “LIPID NANOPARTICLES CONTAINING POLYNUCLEOTIDES ENCODING PHENYLALANINE HYDROXYLASE AND USES THEREOF” (ModernaTX, Inc., priority 2021, published 2024)

Assay: Residual parent lipid levels in the liver of mice
Assay type: in vivo, CD-1 mice
Conditions: calculation assumes a 25 g mouse with a 1.5 g liver, >95% equals very slow metabolism of the lipid
Method: To assess potency of expression and metabolic stability of lipids of the disclosure, hepatocyte protein expression (hEPO) was measured following administration to mice of a nanoparticle of the disclosure.
Lipid nanoparticles including DSPC as a phospholipid, cholesterol as a structural lipid, Compound I as a PEG lipid, an ionizable amino lipid of Formula (II), and an mRNA encoding hEPO were intravenously administered to CD-1 mice. The concentration of hEPO in serum was tested at 6 hours after injection.

| SMILES | Approx. Percent Total Dose of Parent Lipid Remaining at 24 h |
| --- | --- |
| CCCCCCCCC(CCCCCCCC)OC(=O)CCCCCCCN(CCO)CCCCCCCC(=O)OCCCC(CCCCC)CCCCC [Compound 31] | <0.1%^ |
| CCCCCCCCC(CCCCCCCC)OC(=O)CCCCCCCN(CCO)CCCCCCCC(=O)OCCC1CCC(CC)C1 (stereo not shown) [Compound 37] | <0.1%^ |
| CCCCCC(CCCCC)CCCOC(=O)CCCCCCCN(CCO)CCCCCCCC(=O)OCCCC(CCCCC)CCCCC [Compound 33] | <0.1%^ |
| CCCCCCC(CCCCCC)OC(=O)CCCCCCCN(CCCCCCCC(=O)OCCC(CCC)CCC)CCCNc1c(NC)c(=O)c1=O [Compound 64] | 6 ± 0.8% ^ |
| CCCCC(CCCC)CCOC(=O)CCCCCCCN(CCCCCCCC(=O)OC(CCCC)CCCC)CCCNc1c(NC)c(=O)c1=O [Compound 62] | 2 ± 0.9% ^ |
| CCCCCC(CCCCC)OC(=O)CCCCCCCN(CCCCCCCC(=O)OCCC(CCC)CCC)CCCNc1c(NC)c(=O)c1=O [Compound 65] | 0.9 ± 0.06% ^ |
| CCCCCCC(CCCCCC)OC(=O)CCCCCCCN(CCCCCCCC(=O)OCCC(CCCC)CCCC)CCCNc1c(NC)c(=O)c1=O [Compound 60] | 9 ± 0.8% ^ |
| CCCCCC(CCCCC)OC(=O)CCCCCCCN(CCCCCCCC(=O)OCCC(CCCC)CCCC)CCCNc1c(NC)c(=O)c1=O [Compound 61] | 6 ± 0.3% ^ |
| CCCCCCCCC(CCCCCCCC)OC(=O)CCCCCCCN(CCO)CCCCCCCC(=O)OCCC1CCC(CC)CC1 (stereo not shown) [Compound 35] | <0.1%^ |
| CCCCCCCC(CCCCCCC)OC(=O)CCCCCCCN(CCCCCCCC(=O)OCCC(CCC)CCC)CCCNc1c(NC)c(=O)c1=O [Compound 63] | 9 ± 3% ^ |
